The text below walks through data of patent US20110098359A1, “Compositions and Methods for Treatment of Glaucoma” (Stellenbosch University, priority 2007, published 2011).

A short description of data set [1]: Permeability experiments in flow-through diffusion cells across rabbit corneas. Format: in vitro ADME. The note with it: for steady-state flux values: frozen/thawed rabbit cornea, 20° C. The source says:
(§1) Harvested donor comeas, which were deemed unsuitable for transplantation because of infections such as hepatitis B and human immunodeficiency virus (HIV), were obtained from The Eye Bank Foundation of South Africa Observatory from 6 patients (mean age±SD, 35±12 years; range, 24-65 years). In addition, rabbit corneas were obtained from 6 freshly slaughtered rabbits (Country Lane Nursery Farm, Kraaifontein, Cape Town, South Africa). Excised corneas were immediately placed in McCarey-Kaufman solution and transported to a laboratory within 6 hours. The McCarey-Kaufman solution consisted of a stock solution of Medium 199 (Sigma Chemical Company, St. Louis, Mo., U.S.A.) to which sodium bicarbonate, as well as 25 mM of HEPES and 5% dextran, was added before using the solution for the transport of corneal specimens. On arrival in the laboratory, the corneas were hemisected. One half was used immediately, and the other half was snap-frozen in liquid nitrogen and stored at −85° C. for no longer than 6 months before use. At least one piece of corneal tissue from each specimen was placed in formalin and retained for histologic examination.
(§2) Before each permeability experiment, tissue specimens were thawed at room temperature in phosphate buffered saline (PBS, pH 7.4). […]
(§3) Following equilibration, the PBS was removed from the donor compartment and replaced with 1.0 mL of PBS, containing 1 mg/mL (0.1%) paracetamol in PBS at pH 7.4 (w/v) or else 1 mg/mL (0.1%) paracetamol in a commercially available artificial tear gel i.e. Teargel® liquid gel (Restan Laboratories, Bryanston, South Africa). […] Samples were analyzed at the Division of Pharmacology, Faculty of Health Sciences, Stellenbosch University by HPLC with UV detection. The collected fractions were analyzed directly after completion of the respective experiment for their paracetamol content.
(§4) Flux (J) values across membranes were calculated by means of the relationship
(§5) where Q indicates quantity of substance crossing membrane (in ng); A, membrane area exposed (in cm^2); and t, time of exposure (in minutes). […]

The nature of data set [2]: Corneal penetration experiments (general statement). As to conditions: more than 2000 corneal penetration experiments. Format: in vitro ADME. How it is done: An ophthalmic solution was made up as follows: 1 mg/ml (0.1%) solution of paracetamol in phosphate buffered saline (pH=7.4) was used for half of the experiments and 1 mg/ml (0.1%) solution of paracetamol in phosphate […]. […] These tests were conducted in the following manner.

Data set [3] is described as follows: Permeability experiments in flow-through diffusion cells across human corneas. Format: in vitro ADME. As to conditions: for steady-state flux values: frozen/thawed human cornea, 20° C.
Text: as §1, §2, §3, §4, §5

Data set [4] is described as follows: Initial trials: oral paracetamol in patients with glaucoma, intra-ocular pressure reduction. It counts as in vivo, human. As to conditions: 1000 mg orally 4 to 6 hourly, after 24 to 48 hours. The protocol: In initial trials, 1000 mg of paracetamol was administered orally 4 to 6 hourly to several patients with glaucoma. In all cases the intra-ocular pressure reduction was in the order of 30% after 24 to 48 hours. This compares well with the pressure lowering effect of currently available commercial preparations.

[5] abbreviates: 0.1% paracetamol in Teargel (TG).

Regarding `CC(=O)Nc1ccc(O)cc1` [paracetamol], the steady-state flux values in data set [1] (0.1% paracetamol in PBS pH 7.4) is 774±30 ng·cm^−2·min^−1; in data set [1] (setting [5]), 860±39 ng·cm^−2·min^−1; in data set [3] (0.1% paracetamol in PBS pH 7.4), 870±76 ng·cm^−2·min^−1; in data set [3] (setting [5]) it was 860±33 ng·cm^−2·min^−1. For the same compound, the “effect of Teargel on the diffusion rate of paracetamol” value in data set [1] (across rabbit corneas, Teargel vs PBS, 0.1%) is listed as “increase the diffusion rate”. Also, in data set [2], the corneal penetration result is given as “does penetrate the cornea well”. Also, the “effect of Teargel as a soluent on the diffusion rate of paracetamol” value in data set [3] (across human corneas, Teargel vs PBS, 0.1%) is given as “did not affect the diffusion rate”. In addition, the intra-ocular pressure reduction in data set [4] is listed as approximately 30%.
